According to US9242984B2, “Pyrazolyl derivatives as Syk inhibitors” (Merck Sharp & Dohme Corp., priority 2012, dated 2016):

Biological target: T1, recombinant human Syk (GST-hSyk fusion protein) (Homo sapiens, UniProt P43405)
T1 construct: purchased Carna Biosciences 08-176
Assay: Homogeneous Time-Resolved Fluorescence (HTRF) assay for the recombinant human Syk enzyme
Type: biochemical
Details: IC50 class; 10-dose titration, 25 μM ATP; read-out: rhSYK Activity
Summary of the method: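 IC50 came from a four-parameter fit over ten doses, 10 μM to 0.508 nM, with HTRF read-out (Eu-anti-pTyr antibody, SA-APC, EDTA stop, 30 min). The enzyme, 5 pM GST-hSyk, met compound for 10 min, then phosphorylated 250 nM biotin-peptide with 25 μM ATP and 5 mM Mg for 45 min at room temperature, pH 7.5.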

Row | SMILES | IC50
1 | Cc1cc(Nc2nccc(C(F)(F)F)n2)cc(-c2cnn(C[C@@H](C)CO)c2)c1 [Example 3.4, (2r)-2-methyl-3-[4-(3-methyl-5-{[4-(trifluoromethyl)-pyrimidin-2-yl]-amino}phenyl)-1H-pyrazol-1-yl]-propan-1-ol] | ≤ 100 nM
2 | Cc1cc(Nc2nccc(C(F)(F)F)n2)cc(-c2cnn(CC(C)(O)C(=O)O)c2)c1 (racemic) [Example 5.6, 2-hydroxy-2-methyl-3-[4-(3-methyl-5-{[4-(trifluoro-methyl)pyrimidin-2-yl]amino}-phenyl)-1H-pyrazol-1-yl]propanoic acid] | ≤ 100 nM
3 | Cc1cc(Nc2nccc(C(F)(F)F)n2)cc(-c2cnn(CCCC(=O)O)c2)c1 [Example 3.50, 4-[4-(3-methyl-5-{[4-(trifluoromethyl)-pyrimidin-2-yl]amino}-phenyl)-1H-pyrazol-1-yl]butanoic acid] | ≤ 100 nM
4 | Nc1cc(Nc2nccc(C(F)(F)F)n2)cc(-c2cnn(C3CCC(C(=O)O)CC3)c2)c1 (centres unmarked) [Example 1.51, 4-[4-(3-amino-5-{[4-(trifluoromethyl)pyrimidin-2-yl]amino}phenyl)-1H-pyrazol-1-yl]cyclohexanecarboxylic acid] | ≤ 100 nM
5 | Cc1cc(Nc2nccc(C)n2)cc(-c2cnn(C[C@@H](O)C(=O)O)c2)c1 [Example 11.10, (2R)-2-hydroxy-3-(4-{3-methyl-5-[(4-methylpyrimidin-2-yl)amino]phenyl}-1H-pyrazol-1-yl)propanoic acid] | ≤ 100 nM
6 | O=C1NCC(Cn2cc(-c3cccc(Nc4cc(C(F)F)ccn4)n3)cn2)O1 (centres unmarked) [Example 3.84, 5-{[4-(6-{[4-(difluoromethyl)pyridin-2-yl]amino}pyridin-2-yl)-1H-pyrazol-1-yl]methyl}-1,3-oxazolidin-2-one] | ≤ 100 nM
7 | Cc1cc(Nc2cc(C(F)(F)F)ccn2)nc(-c2cnn(CC3CNC(=O)O3)c2)c1 (centres unmarked) [Example 1.29, 5-{[4-(4-methyl-6-{[4-(trifluoromethyl)pyridin-2-yl]amino}pyridin-2-yl)-1H-pyrazol-1-yl]methyl}-1,3-oxazolidin-2-one] | ≤ 100 nM
8 | CCNC(=O)NC(C)(C)Cn1cc(-c2cc(C)cc(Nc3nccc(C(F)F)n3)c2)cn1 [Example 27.8, 1-{2-[4-(3-{[4-(difluoromethyl)pyrimidin-2-yl]amino}-5-methylphenyl)-1H-pyrazol-1-yl]-1,1-dimethylethyl}-3-ethylurea] | ≤ 100 nM
9 | Cc1ccnc(Nc2cc(C)cc(-c3cnn(CC4(O)CCC4)c3)n2)c1 [Example 29.3, 1-[(4-{4-methyl-6-[(4-methylpyridin-2-yl)amino]pyridin-2-yl}-1H-pyrazol-1-yl)methyl}cyclobutanol] | ≤ 100 nM
10 | Cc1cc(Nc2nccc(C(F)F)n2)cc(-c2cnn(C(C[C@H](C)O)[C@H](C)O)c2)c1 (stereo in doubt) [Example 2.55, 3-[4-(3-{[4-(difluoromethyl)pyrimidin-2-yl]amino}-5-methylphenyl)-1H-pyrazol-1-yl]hexane-2,5-diol] | ≤ 100 nM
11 | Cc1cc(Nc2nccc(C)n2)cc(-c2cnn(CC3OC(=O)NC3C(C)C)c2)c1 (single isomer, unassigned) [Example 23.15, 4-(1-methylethyl)-5-[(4-{3-methyl-5-[(4-methylpyrimidin-2-yl)amino]phenyl}-1H-pyrazol-1-yl)methyl]-1,3-oxazolidin-2-one] | ≤ 100 nM
12 | Cc1cc(Nc2nccc(C(F)(F)F)n2)cc(-c2cn[nH]c2)c1 [Example 1.6, N-[3-methyl-5-(1H-pyrazol-4-yl)phenyl]-4-(trifluoromethyl)-pyrimidin-2-amine] | ≤ 100 nM
13 | COc1nc(Nc2cc(C)cc(-c3cnn(CCC(N)=O)c3)c2)ncc1F [Example 2.11, 3-(4-{3-[(5-fluoro-4-methoxypyrimidin-2-yl)amino]-5-methylphenyl}-1H-pyrazol-1-yl)propanamide] | ≤ 100 nM
14 | COc1nc(Nc2cc(C)cc(-c3cnn(CC4CNC(=O)O4)c3)c2)ncc1Cl (centres unmarked) [Example 2.28, 5-[(4-{3-[(5-chloro-4-methoxypyrimidin-2-yl)amino]-5-methylphenyl}-1H-pyrazol-1-yl)methyl]-1,3-oxazolidin-2-one] | ≤ 100 nM
